From article PMC6332427, “Drug Discovery of Host CLK1 Inhibitors for Influenza Treatment” (Molecules, 2015)
In brackets after ≈: the same amount, converted by molar mass. Several values for one entry are separate records, joined by “and”; a condition that tells them apart may be missing. Equal values may be shown once. Read-outs that look alike come from different tables or passages of the source.

How the values were obtained:
recombinant human CLK1 = target: T1, recombinant human CLK1 (Homo sapiens, UniProt P49759); experiment: CLK1 inhibitory assay (Kinase-Glo luminescent kinase assay, MBP substrate); assay type: biochemical
T1 construct: The primer of human full length CLK1 gene was as follows; made in house; host or cells: Sf9 insect cells (baculovirus, pFastBac1)
T1 sequence (P49759 whole entry): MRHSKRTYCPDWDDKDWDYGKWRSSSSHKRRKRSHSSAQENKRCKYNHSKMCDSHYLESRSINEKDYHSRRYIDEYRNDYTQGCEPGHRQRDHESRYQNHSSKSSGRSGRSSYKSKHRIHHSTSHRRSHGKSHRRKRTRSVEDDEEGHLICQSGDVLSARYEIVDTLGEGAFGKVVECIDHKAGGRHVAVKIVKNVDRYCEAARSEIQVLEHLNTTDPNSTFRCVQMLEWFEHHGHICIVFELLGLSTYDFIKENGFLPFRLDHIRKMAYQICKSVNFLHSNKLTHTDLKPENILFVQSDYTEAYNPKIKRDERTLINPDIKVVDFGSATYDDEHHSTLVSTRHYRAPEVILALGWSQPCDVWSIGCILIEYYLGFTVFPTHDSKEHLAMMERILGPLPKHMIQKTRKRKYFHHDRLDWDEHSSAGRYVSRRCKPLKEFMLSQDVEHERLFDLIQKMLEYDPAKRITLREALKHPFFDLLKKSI
Procedure: The optimal conditions were dependent on the largest change in luminescence when comparing kinase reaction wells with control wells.
The kinase assay in this study utilized appropriate concentration of recombinant purified protein CLK1 in the presence of MBP as the substrate, MgCl2, MnCl2, ATP in kinase buffer (10 mM Tris, 1 mM EGTA, 100 μM sodium orthovanadate, 10 μM p-nitrophenyl phosphate (PNP), pH7.4) in a reaction volume of 20 μL. The reaction system were incubated at 25 °C for appropriate time. The Kinase-Glo® Luminescent Kinase Assay Platform was used to measure kinase activity by quantitating the amount of ATP, the signals of which were recorded using PerkinElmer’s EnSpire Multilabel Plate Reader. All the above components were added to the plate by automatic dispenser (EDR-384S, BioTec, Tokyo, Japan). A series of parameters containing the amount of kinase (1.16–298 ng/mL), MBP (3.125–150 μg/mL), ATP (0.1–100 μM), Mg^2+ (0.01–100 mM), Mn^2+ (0.5–20 mM), the percentage of DMSO (0.03%–10%), reaction time and temperature were optimized respectively in order to get best performance. Z′ factor values was calculated as described.
The inhibition percentage of the compounds against CLK1 were calculated according to the formula: (1) inhibition%=[(RLUsample−RLUpositive)/(RLUnegative−RLUpositive)]×100% where the RLUsample, RLUpositive, RLUnegative are the measured RLU values with treatment of test compounds, the wells free of test compounds, and that of without kinase, respectively.

[1] = tested on: influenza virus A/PR/8/34 (H1N1); experiment: in vitro; details: for selectivity ratio at 24 h: MDCK, H1N1
[2] = tested on: influenza virus A/PR/8/34 (H1N1); experiment: organism not typed; details: MDCK
[3] = Cytotoxicity assay in MDCK cells (MTT, 72 h); details: dog
MDCK cells [4] = experiment: Cytotoxicity assay in MDCK cells (MTT, 72 h); details: MDCK cells; for CC0 (maximal non-cytotoxic concentration): 72 h, MTT, more than 90% cells viable
MDCK cells [5] = details: dog, 72 h
in vitro = details: dog
[6] = tested on: influenza virus A/PR/8/34 (H1N1); experiment: microbe, parasite or virus in culture; details: MDCK, read-out: EC50s in time-of-addition assays
CLK1 = details: cited from earlier work
[7] = tested on: influenza virus A/PR/8/34 (H1N1); details: 24 h, mean ± SD
[8] = Kinase-Glo assay, read-out: IC50 (converted)
[9] = 24 h, read-out: Simultaneous Treatment Assay EC50
[10] = read-out: Post-Treatment Assay EC50
[11] = read-out: Pre-Treatment Assay EC50
[12] = Post-Treatment Assay SI (selective index, CC50/EC50), post-treatment
[13] = Pre-Treatment Assay SI (selective index, CC50/EC50), pre-treatment
[14] = Simultaneous Treatment Assay SI (selective index, CC50/EC50), simultaneous treatment

Structure (SMILES) | IC50 (recombinant human CLK1; [8]) | EC50 [2, 9] | EC50 [2, 10] | EC50 [2, 11] | CC0 (maximal non-cytotoxic concentration) (MDCK cells [4]) | selectivity ratio at 24 h [1, 12] | IC50 (recombinant human CLK1; IC50, Kinase-Glo assay) | CC0 (maximal non-cytotoxic concentration) (MDCK cells [5]) | CC50 at 72 h (in vitro) | also measured
O=c1c(O)c(-c2ccc(O)cc2)oc2cc(O)cc(O)c12 [J10610, Kaempferol] | < 175 µM | 12.3 ± 5.89 µg/mL (≈ 43.1 µM) | 23.3 ± 1.08 µg/mL (≈ 81.4 µM) | 5.16 ± 2.4 µg/mL (≈ 18 µM) | 30 µg/mL |  |  |  |  | IC50 (recombinant human CLK1; Figure 6, Kinase-Glo assay, read-out: IC50 (converted)): 6.01 µM; selectivity ratio ([1]; Post-Treatment Assay SI (selective index, CC50/EC50)): 2.94; selectivity ratio ([1]; Pre-Treatment Assay SI (selective index, CC50/EC50)): 13.3; selectivity ratio ([1]; Simultaneous Treatment Assay SI (selective index, CC50/EC50)): 5.55; CC50 at 72 h ([3]; MDCK cells): 68.5 µg/mL (≈ 239 µM)
O=c1cc(-c2ccc(O)c(O)c2)oc2cc(O)cc(O)c12 [J20725, Luteolin] | < 175 µM | > 10 µg/mL | 5.74 ± 0.54 µg/mL (≈ 20.1 µM) | > 10 µg/mL | 10 µg/mL | 4.33 |  |  |  | CC50 at 72 h ([3]; MDCK cells): 24.9 µg/mL (≈ 86.9 µM); concentration above which toxic effects occur (MDCK cells [4]): above 10 μg/mL
O=C(O[C@@H]1Cc2c(O)cc(O)cc2O[C@@H]1c1cc(O)c(O)c(O)c1)c1cc(O)c(O)c(O)c1 [J14080, Epigallocatechin gallate] |  | 14.9 ± 1.81 µg/mL (≈ 32.4 µM) | > 30 µg/mL | 10.2 ± 6.22 µg/mL (≈ 22.2 µM) | 30 µg/mL |  | < 109 µM |  |  | CC50 at 72 h [3]: 71.1 µg/mL (≈ 155 µM)
O=C(O[C@@H]1O[C@@H]2COC(=O)c3cc(O)c(O)c(O)c3-c3c(cc(O)c(O)c3O)C(=O)O[C@H]([C@H]1O)[C@@H]2O)c1cc(O)c(O)c(O)c1 [J12098, Corilagin] |  | 2 ± 2.22 µg/mL (≈ 3.15 µM) | 5.91 ± 1.44 µg/mL (≈ 9.32 µM) | 3.99 ± 3.72 µg/mL (≈ 6.29 µM) |  | 26 | < 78.8 µM and 0.599 µM | 30 µg/mL | 154 µg/mL (≈ 242 µM) | selectivity ratio at 24 h [1, 13]: 38.5; selectivity ratio at 24 h [1, 14]: 76.8; EC50 [6]: < 20 µg/mL
O=c1cc(-c2ccccc2)oc2c(O)c(O)cc(O)c12 [J21548, Norwogonin] |  | > 30 µg/mL | > 30 µg/mL | > 30 µg/mL |  |  | < 185 µM | 30 µg/mL | 91.8 µg/mL (≈ 340 µM) | 
C/C=C/C(=O)c1c(O)c2c(c3c(-c4ccccc4)cc(=O)oc13)OC(C)(C)C=C2 [J10857] | < 129 µM | 16.3 ± 2.29 µg/mL (≈ 41.9 µM) | 14.7 ± 5.25 µg/mL (≈ 37.8 µM) | 18.4 ± 13 µg/mL (≈ 47.4 µM) |  | 5.3 |  | 30 µg/mL | 77.7 µg/mL (≈ 200 µM) | selectivity ratio at 24 h [1, 13]: 4.22; selectivity ratio at 24 h [1, 14]: 4.78
c1csc(CNc2ncnc3ccc(-c4ccc5c(c4)OCO5)cc23)c1 [NCGC00010037] |  |  |  |  |  |  |  |  |  | IC50 (CLK1): 0.037 µM
O=c1c(-c2ccc(O)cc2)coc2cc(O)cc(O)c12 [Genistein] |  | > 30 µg/mL | > 30 µg/mL | > 30 µg/mL | 30 µg/mL |  | < 185 µM |  |  | CC50 at 72 h [3]: 75.6 µg/mL (≈ 280 µM)
CCN1/C(=C/C(C)=O)Sc2ccc(OC)cc21 [TG003, reference compound] |  |  |  |  |  |  |  |  |  | Post-Treatment Assay EC50 ([7]; H1N1 (MOI 0.01) incubated with MDCK cells 2 h, then compound): 3.56 ± 1.47 µg/mL; Pre-Treatment Assay EC50 ([7]; H1N1 (MOI 0.01) pre-incubated with compound 2 h at 37 °C before addition to MDCK cells): 5.09 ± 0.78 µg/mL; Simultaneous Treatment Assay EC50 ([7]; compound added along with H1N1 (MOI 0.01) to MDCK cells): 15.75 ± 3.49 µg/mL; IC50 (CLK1): […]
